According to patent US7659289B2, “Hydroxyethylene-based β-secretase inhibitors and use thereof” (CoMentis, Inc., priority 2004, dated 2010):

How the values were obtained:
Cathepsin D = Cathepsin D (Homo sapiens, UniProt P07339); assay: Inhibition of cathepsin D activity (MALDI-TOF, substrate peptide […]); format: biochemical; settings: pH 4.1, 37 degrees C., read-out: Cath D Ki
Aβ production = assay: Cellular Aβ IC50 determination (Aβ40 sandwich ELISA); format: cell-based; settings: Cricetulus griseus; Aβ40, Chinese hamster ovary cells over-expressing human APP695 with London and Swedish mutations, 24 h incubation
Procedure: The potency of compounds against memapsin 2 activity was determined in a cellular assay of Aβ production. […] Chinese hamster ovary cells that over-express human APP695 with the London and Swedish mutations were seeded in multi-well plates at 10% confluency. Compounds were dissolved in DMSO to concentrations near 1 mM, and diluted into culture media to a final concentration near 4 μM (final 0.4% DMSO). Compounds were diluted serially and applied to cells in multi-well plates 48 h after seeding. Incubation was continued in 5% CO2 at 37 degrees C. for 24 h. Aliquots were removed and assayed for Aβ40 content using a sandwich ELISA (BioSource International). Amount of Aβ40 over the range of concentration of compounds, relative to control incubations, were fit to a 4-parameter IC50 model.

memapsin 2 = memapsin 2 (Homo sapiens, UniProt P56817); assay: Inhibition of memapsin 2 beta-secretase activity toward fluorogenic substrate FS-2; format: biochemical; settings: pH 4, 37° C., 20 minutes pre-incubation, fluorogenic substrate FS-2, tight-binding model; read-out: M2 Ki
memapsin 2, sequence (P56817 46-501): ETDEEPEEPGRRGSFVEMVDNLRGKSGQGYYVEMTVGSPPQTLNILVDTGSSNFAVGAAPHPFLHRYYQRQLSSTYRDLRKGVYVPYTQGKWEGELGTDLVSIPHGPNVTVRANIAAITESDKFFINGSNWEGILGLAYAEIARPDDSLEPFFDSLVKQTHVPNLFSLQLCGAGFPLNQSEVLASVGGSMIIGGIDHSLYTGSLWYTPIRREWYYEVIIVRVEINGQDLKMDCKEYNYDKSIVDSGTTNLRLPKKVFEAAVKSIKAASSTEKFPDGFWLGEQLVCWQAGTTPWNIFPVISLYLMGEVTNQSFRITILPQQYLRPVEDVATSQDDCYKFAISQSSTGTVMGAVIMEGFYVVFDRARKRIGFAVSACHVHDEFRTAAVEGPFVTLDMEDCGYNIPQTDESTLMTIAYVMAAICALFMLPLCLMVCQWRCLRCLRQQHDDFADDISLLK

Cathepsin D, sequence (P07339 65-412, species assumed): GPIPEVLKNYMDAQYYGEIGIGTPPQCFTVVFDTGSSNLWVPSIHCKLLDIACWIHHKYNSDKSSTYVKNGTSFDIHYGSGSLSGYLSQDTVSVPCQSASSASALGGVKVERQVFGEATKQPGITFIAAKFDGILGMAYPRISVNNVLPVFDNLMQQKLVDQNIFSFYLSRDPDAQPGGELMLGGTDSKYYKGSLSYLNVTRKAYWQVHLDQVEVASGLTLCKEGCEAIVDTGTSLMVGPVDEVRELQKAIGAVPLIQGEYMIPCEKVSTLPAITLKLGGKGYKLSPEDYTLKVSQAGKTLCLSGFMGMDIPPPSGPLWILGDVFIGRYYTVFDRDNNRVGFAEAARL

| Compound | Ki (Cathepsin D) | IC50 (Aβ production) | Ki (memapsin 2) |
| --- | --- | --- | --- |
| Cc1cc(C)n(C[C@H](C)C(=O)N[C@@H](CNC(=O)O[C@H]2CCOC2)C(=O)N[C@@H](CC(C)C)[C@@H](O)C[C@@H](C)C(=O)N[C@H](C(=O)NCC(C)C)C(C)C)n1 [(S)-tetrahydrofuran-3-yl (S)-2-((S)-3-(3,5-dimethyl-1H-pyrazol-1-yl)-2-methylpropanamido)-3-((4S,5S,7R)-5-hydroxy-8-((S)-1-(isobutylamino)-3-methyl-1-oxobutan-2-ylamino)-2,7-dimethyl-8-oxooctan-4-ylamino)-3-oxopropylcarbamate] | < 100 nM | 6 to 100 µM | < 100 nM |
| Cc1csc(C[C@H](C)C(=O)N[C@@H](CNC(=O)O[C@H]2CCOC2)C(=O)N[C@@H](CC(C)C)[C@@H](O)C[C@@H](C)C(=O)N[C@H](C(=O)NCC(C)C)C(C)C)n1 [(S)-tetrahydrofuran-3-yl(S)-3-((4S,5S,7R)-5-hydroxy-8-((S)-1-(isobutylamino)-3-methyl-1-oxobutan-2-ylamino)2,7-dimethyl-8-oxooctan-4-ylamino)-2-((S)-2-methyl-3-(4-methylthiazol-2-yl)propanamido)-3-oxopropylcarbamate] | < 100 nM | < 6 µM | < 100 nM |
| CC[C@@H](Cc1nc(C)cs1)C(=O)N[C@@H](CNC(=O)OC(C)C)C(=O)N[C@@H](CC(C)C)[C@@H](O)C[C@@H](C)C(=O)N[C@H](C(=O)NCC(C)C)C(C)C [isoproyl (S)-3-((4S,5S,7R)-5-hydroxy-8-((S)-1-(isobutylamino)-3-methyl-1-oxobutan-2-ylamino)-2,7-dimethyl-8-oxooctan-4-ylamino)-2-((S)-2-((4-methylthiazol-2-yl)methyl)butanamido)-3-oxopropylcarbamate] | < 100 nM | < 6 µM | < 100 nM |
| COC(=O)NC[C@H](NC(=O)[C@@H](C)Cc1nc(C)cs1)C(=O)N[C@@H](CC(C)C)[C@@H](O)C[C@@H](C)C(=O)N[C@H](C(=O)NCC(C)C)C(C)C [methyl (S)-3-((4S,5S,7R)-5-hydroxy-8-((S)-1-(isobutylamino)-3-methyl-1-oxobutan-2-ylamino)-2,7-dimethyl-8-oxooctan-4-ylamino)-2-((S)-2-methyl-3-(4-methylthiazol-2-yl)propanamido)-3-oxopropylcarbamate] | < 100 nM | < 6 µM | < 100 nM |
| COC(Cn1nc(C)cc1C)C(=O)N[C@@H](CNC(=O)OC(C)(C)C)C(=O)N[C@@H](CC(C)C)[C@@H](O)C[C@@H](C)C(=O)N[C@H](C(=O)NCC(C)C)C(C)C (stereo partly drawn) [tert-butyl (2S)-2-(3-(3,5-dimethyl-1H-pyrazol-1-yl)-2-methoxypropanamido)-3-((4S,5S,7R)-5-hydroxy-8-((S)-1-(isobutylamino)-3-methyl-1-oxobutan-2-ylamino)-2,7-dimethyl-8-oxooctan-4-ylamino)-3-oxopropylcarbamate] | < 100 nM | > 100 µM | 100 to 600 nM |

Results, then the compound that gave them:

| Ki (Cathepsin D) | IC50 (Aβ production) | Ki (memapsin 2) | Compound |
| --- | --- | --- | --- |
| 100 to 600 nM | > 100 µM | 100 to 600 nM | Cc1cc(C)n(CC(N)C(=O)N[C@@H](CNC(=O)OC(C)(C)C)C(=O)N[C@@H](CC(C)C)[C@@H](O)C[C@@H](C)C(=O)N[C@H](C(=O)NCC(C)C)C(C)C)n1 (stereo partly drawn) [tert-butyl (2S)-2-(2-amino-3-(3,5-dimethyl-1H-pyrazol-1-yl)propanamido)-3-((4S,5S,7R)-5-hydroxy-8-((S)-1-(isobutylamino)-3-methyl-1-oxobutan-2-ylamino)-2,7-dimethyl-8-oxooctan-4-ylamino)-3-oxopropylcarbamate] |
| < 100 nM | 6 to 100 µM | 100 to 600 nM | Cc1cc(C)n(CC(N=[N+]=[N-])C(=O)N[C@@H](CNC(=O)OC(C)(C)C)C(=O)N[C@@H](CC(C)C)[C@@H](O)C[C@@H](C)C(=O)N[C@H](C(=O)NCC(C)C)C(C)C)n1 (stereo partly drawn) [tert-butyl (2S)-2-(2-azido-3-(3,5-dimethyl-1H-pyrazol-1-yl)propanamido)-3-((4S,5S,7R)-5-hydroxy-8-((S)-1-(isobutylamino)-3-methyl-1-oxobutan-2-ylamino)-2,7-dimethyl-8-oxooctan-4-ylamino)-3-oxopropylcarbamate] |
